{
  "source": "patent US10016400B2",
  "about": "“Composition including rapamycin as active ingredient for preventing or treating hearing loss” (AJOU UNIVERSITY INDUSTRY—ACADEMIC COOPERATION FOUNDATION, priority 2014, dated 2018)",
  "key": {"[1]": {"tested_on": "HEI-OC1 cells", "assay": "RPM effects on apoptosis, MTS assay", "format": "cell-based", "experimental": "(§1) An auditory cell line, e.g., House-Ear Institute-organ of Corti 1 (HEI-OC1), that expresses auditory genes was used. HEI-OC1 cells were cultured under conditions of a temperature of 33° C. and a CO2 (10%) by adding 10% fetal bovine serum (FBS) and 25 U/ml interferon-gamma to a Dulbecco's modified Eagle's Medium (DMEM) including high concentrations of glutamine. At about 90% confluence of the cultured cells on a bottom surface of a plate, the cell density was maintained within an appropriate range by performing serial subcultures using 2.5% Trypsin-EDTA.\nHere, RPM was used as an inducer of autophagy and chloroquine (CQ) was used as an inhibitor of autophagy in terms of pretreatment and combination treatment."}, "[2]": {"settings": "in vivo; cited from earlier work"}, "[3]": {"tested_on": "HEI-OC1 cells", "assay": "Autophagy in auditory cell line (LC3 staining, western blot, real-time quantitative PCR)", "format": "cell-based", "settings": "HEI-OC1 cells treated with GM", "experimental": "as §1\nTo observe autophagy in the GM-treated auditory cells, the HEI-OC1 cells, which are the auditory cell line of Example 1-2, were subjected to immunohistochemistry using LC3 antibody, thereby staining autophagosomes, the expression of autophagy-related proteins, e.g., LC3, Beclin-1, and RAS-related GTP-binding proteins (Rab7) was confirmed according to the western blot, and the processes of autophagy were analyzed through real-time quantitative PCR."}, "[4]": {"tested_on": "auditory outer and inner hair cells", "assay": "Autophagy in cochlear hair cells, immunohistochemistry with LC3 antibodies", "format": "in vivo", "settings": "GM treatment, rat cochleae", "experimental": "A total of 24 rats were classified into one group of 12 rats treated with 50 pM of rapamycin (RRM) and another group of 12 rats treated with 100 pM of RPM. […] To allow RPM to be well absorbed inside the tympanum, the rats were placed in a lateral decubitus position and stabilized. Meanwhile, rats of which right ears were treated with physiological saline were classified as a control group.\nTo observe autophagy in the auditory outer hair cells, the cochleae of the rats of Example 1 were subjected to immunohistochemistry using microtubule-associated LC3 (Microtubule-associated protein 1A/1B-light chain 3) antibodies."}},
  "data": [
    {"compound": "CCN(CC)CCCC(C)Nc1ccnc2cc(Cl)ccc12", "note": "(centres unmarked) [CQ, chloroquine]", "values": [
      {"measurement": "apoptosis with GM and autophagy inhibitor", "setting": "[1]; 5 mM GM with 25 μM CQ", "result": "more likely to be undergone the apoptosis"}
    ]},
    {"compound": "CO[C@H]1C[C@@H]2CC[C@@H](C)[C@@](O)(O2)C(=O)C(=O)N2CCCC[C@H]2C(=O)O[C@H]([C@H](C)C[C@@H]2CC[C@@H](O)[C@H](OC)C2)CC(=O)[C@H](C)/C=C(\\C)[C@@H](O)[C@@H](OC)C(=O)[C@H](C)C[C@H](C)/C=C/C=C/C=C/1C", "note": "[RPM, rapamycin]", "values": [
      {"measurement": "LD50 value (dose lethal to 50% of the population)", "setting": "[2]", "result": "at least 2 g/kg"}
    ]},
    {"compound": "gentamicin [GM]", "values": [
      {"measurement": "number of autophagosomes", "setting": "[3]", "result": "increased over time"},
      {"measurement": "HEI-OC1 cells undergone apoptosis", "setting": "[1]; 5 mM of GM for 48 hours", "result": "about 25%"},
      {"measurement": "autophagosomes having a double membrane in auditory outer and inner hair cells", "setting": "[4]", "result": "increase in autophagosomes"}
    ]}
  ]
}
